Literature values in patent publication EP3628310A1, “PHARMACEUTICAL COMPOSITION COMPRISING SOLID DISPERSIONS OF AMORPHOUS CLADRIBINE AND PHARMACEUTICALLY ACCEPTABLE WATER SOLUBLE CARRIER” (Synbias Pharma AG, priority 2018, dated 2020).
Like-named read-outs stand apart in the source and are kept apart here.

calculated half time T1/2 (pH 1, 37°C): 22.2 min | 2-CdA content (pH 1, after 2 h of heating to 37°C): 2% | 2-CdA remains in solution (pH 2, 37°, after 6 h): 13% | calculated half time T1/2 (pH 2, 37°C): 96 min
SMILES: Nc1nc(Cl)nc2c1ncn2[C@H]1C[C@H](O)[C@@H](CO)O1 [Tablet 2-CdA, 2-chloro-2'-deoxyadenosine]
